Measured values reported in ChEMBL document CHEMBL4406892 (Bioorg Med Chem Lett, 2019).
Calls of active or inactive are those of the source. The calls are words filed in the database; no cut-off is given here.

How the values were obtained:
[1] = molecular target: Urokinase-type plasminogen activator (Homo sapiens, UniProt P00749)
Description: Inhibition of human kidney uPA using fluorogenic Z-Pyr-Gly-Arg-MCA as substrate measured after 15 mins by fluorometric analysis

[2] = tested on: Rattus norvegicus; assay: Antikaliuretic activity in Sprague-Dawley rat model of acetazolamide-induced diuresis assessed as decrease in potassium secretion at 1.5 mg/kg, ip pretreated with acetazolamide followed by compound treatment measured after 6 hrs; assay type: ADME, organism-based; conditions: in vivo
[3] = molecular target: Trypsin (Homo sapiens, UniProt P07477+P07478+P35030); assay: Inhibition of trypsin (unknown origin) using chromogenic H-D-Ile-[…]-L-arginine-p-nitroaniline as substrate; assay type: protein assay
[4] = tested on: Rattus norvegicus; assay: Diuretic activity in Sprague-Dawley rat model of acetazolamide-induced diuresis assessed as increase in sodium excretion at 1.5 mg/kg, ip pretreated with acetazolamide followed by compound treatment measured after 6 hrs; assay type: ADME, organism-based; conditions: in vivo
[5] = tested on: Rattus norvegicus; assay: Diuretic activity in Sprague-Dawley rat model of acetazolamide-induced diuresis assessed as increase in urine volume at 1.5 mg/kg, ip pretreated with acetazolamide followed by compound treatment measured after 6 hrs; assay type: ADME, organism-based; conditions: in vivo
[6] = tested on: HT-1080; assay: Antimetastatic activity against luciferase-tagged human HT1080 cells xenografted in NSG mouse assessed as reduction in lung burden at 7.5 mg/kg/day, ip for 21 days by luciferase assay; assay type: functional, organism-based
[7] = molecular target: Coagulation factor X (Homo sapiens, UniProt P00742); assay: Inhibition of factor Xa (unknown origin)
[8] = molecular target: Coagulation factor XI (Homo sapiens, UniProt P03951); assay: Inhibition of factor 11a (unknown origin) using chromogenic L-pyroGlu-L-Pro-L-Arg-p-nitroaniline as substrate
[9] = molecular target: Tissue-type plasminogen activator (Homo sapiens, UniProt P00750)
Description: Inhibition of tissue-type plasminogen activator (unknown origin) using chromogenic H-D-Ile-L-propyl-L-arginine-p-nitroaniline as substrate

[10] = molecular target: Vitamin K-dependent protein C (Homo sapiens, UniProt P04070); assay: Inhibition of activated protein C (unknown origin) using chromogenic L-pyroGlu-L-Pro-L-Arg-p-nitroaniline as substrate
[11] = molecular target: Prothrombin (Homo sapiens, UniProt P00734); assay: Inhibition of thrombin (unknown origin) using chromogenic H-D-Ile-[…]-L-arginine-p-nitroaniline as substrate
[12] = molecular target: Plasma kallikrein (Homo sapiens, UniProt P03952)
Description: Inhibition of human plasma kallikrein using chromogenic L-pyroGlu-L-Pro-L-Arg-p-nitroaniline as substrate

[13] = molecular target: Plasminogen (Homo sapiens, UniProt P00747); assay: Inhibition of plasmin (unknown origin) using chromogenic H-D-Ile-[…]-L-arginine-p-nitroaniline as substrate
Chain of Plasminogen (P00747 97-580 limits assumed): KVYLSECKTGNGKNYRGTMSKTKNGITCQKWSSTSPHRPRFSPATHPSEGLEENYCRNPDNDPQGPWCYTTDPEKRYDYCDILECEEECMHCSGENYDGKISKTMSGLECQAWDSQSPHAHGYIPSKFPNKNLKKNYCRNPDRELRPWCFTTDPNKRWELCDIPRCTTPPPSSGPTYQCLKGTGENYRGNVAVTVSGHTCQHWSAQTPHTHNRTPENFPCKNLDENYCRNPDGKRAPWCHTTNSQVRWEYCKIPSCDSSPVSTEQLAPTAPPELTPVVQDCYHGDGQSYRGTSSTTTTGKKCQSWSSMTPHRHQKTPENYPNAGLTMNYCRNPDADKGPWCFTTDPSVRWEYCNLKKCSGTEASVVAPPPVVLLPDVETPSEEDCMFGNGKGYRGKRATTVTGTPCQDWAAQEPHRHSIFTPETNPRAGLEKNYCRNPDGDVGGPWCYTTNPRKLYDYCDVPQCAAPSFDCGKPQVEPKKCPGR
Chain of Plasminogen (P00747 581-810 limits assumed): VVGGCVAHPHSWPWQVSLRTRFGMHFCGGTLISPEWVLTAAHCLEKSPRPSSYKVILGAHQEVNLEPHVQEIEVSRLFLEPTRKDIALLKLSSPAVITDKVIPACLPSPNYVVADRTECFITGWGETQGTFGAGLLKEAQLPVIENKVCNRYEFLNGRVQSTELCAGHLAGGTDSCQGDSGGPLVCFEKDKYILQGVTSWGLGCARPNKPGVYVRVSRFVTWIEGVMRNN

Chain of Coagulation factor XI (P03951 19-387 limits assumed): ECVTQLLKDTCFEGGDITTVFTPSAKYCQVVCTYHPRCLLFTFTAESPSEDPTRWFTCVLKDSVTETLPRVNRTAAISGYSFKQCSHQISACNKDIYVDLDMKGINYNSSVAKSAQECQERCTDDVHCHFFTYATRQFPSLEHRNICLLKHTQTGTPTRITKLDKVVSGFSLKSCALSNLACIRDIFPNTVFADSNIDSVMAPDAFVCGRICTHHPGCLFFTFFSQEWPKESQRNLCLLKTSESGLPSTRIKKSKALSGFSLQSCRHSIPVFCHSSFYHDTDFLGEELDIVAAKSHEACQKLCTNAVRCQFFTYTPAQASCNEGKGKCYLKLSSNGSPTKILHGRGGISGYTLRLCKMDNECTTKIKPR
Chain of Coagulation factor XI (P03951 388-625 limits assumed): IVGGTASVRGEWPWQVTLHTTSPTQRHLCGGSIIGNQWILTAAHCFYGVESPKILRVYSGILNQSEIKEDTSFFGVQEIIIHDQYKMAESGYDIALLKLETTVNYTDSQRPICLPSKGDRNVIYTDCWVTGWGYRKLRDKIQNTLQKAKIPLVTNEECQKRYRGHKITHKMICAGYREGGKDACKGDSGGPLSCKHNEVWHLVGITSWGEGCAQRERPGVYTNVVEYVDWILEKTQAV
Chain of Plasma kallikrein (P03952 20-390 limits assumed): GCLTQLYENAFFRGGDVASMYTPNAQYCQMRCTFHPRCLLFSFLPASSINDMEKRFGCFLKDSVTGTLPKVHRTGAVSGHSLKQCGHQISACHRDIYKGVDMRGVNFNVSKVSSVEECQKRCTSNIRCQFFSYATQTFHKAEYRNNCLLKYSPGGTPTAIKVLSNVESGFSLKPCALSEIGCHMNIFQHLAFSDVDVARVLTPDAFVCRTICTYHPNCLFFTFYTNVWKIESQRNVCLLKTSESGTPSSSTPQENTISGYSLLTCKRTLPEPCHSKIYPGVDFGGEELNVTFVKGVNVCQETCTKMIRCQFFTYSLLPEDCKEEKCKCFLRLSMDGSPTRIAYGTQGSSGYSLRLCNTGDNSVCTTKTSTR
Chain of Plasma kallikrein (P03952 391-638 limits assumed): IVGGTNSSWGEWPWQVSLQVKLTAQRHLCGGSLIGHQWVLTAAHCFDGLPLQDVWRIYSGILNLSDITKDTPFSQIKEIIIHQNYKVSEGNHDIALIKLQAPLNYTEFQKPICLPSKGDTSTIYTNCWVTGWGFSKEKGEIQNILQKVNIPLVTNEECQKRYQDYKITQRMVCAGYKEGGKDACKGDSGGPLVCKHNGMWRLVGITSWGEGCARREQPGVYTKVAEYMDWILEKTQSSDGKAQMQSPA
Chain of Tissue-type plasminogen activator (P00750 whole entry): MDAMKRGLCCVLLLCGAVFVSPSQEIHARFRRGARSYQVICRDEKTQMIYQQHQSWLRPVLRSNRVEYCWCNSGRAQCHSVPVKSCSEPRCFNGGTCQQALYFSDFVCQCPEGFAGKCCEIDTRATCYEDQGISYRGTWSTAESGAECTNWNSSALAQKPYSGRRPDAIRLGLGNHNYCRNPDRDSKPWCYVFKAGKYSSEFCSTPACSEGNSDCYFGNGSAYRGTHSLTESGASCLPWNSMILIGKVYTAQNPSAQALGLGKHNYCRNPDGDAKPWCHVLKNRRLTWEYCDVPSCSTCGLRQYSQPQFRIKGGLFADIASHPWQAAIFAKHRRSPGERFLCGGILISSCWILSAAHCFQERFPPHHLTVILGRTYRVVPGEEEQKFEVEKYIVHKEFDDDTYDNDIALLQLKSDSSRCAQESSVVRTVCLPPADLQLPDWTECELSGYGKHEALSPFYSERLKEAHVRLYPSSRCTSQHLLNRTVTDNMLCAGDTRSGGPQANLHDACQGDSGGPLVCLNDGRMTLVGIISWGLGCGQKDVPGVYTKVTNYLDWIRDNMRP
Chain of Coagulation factor X (P00742 41-179 limits assumed): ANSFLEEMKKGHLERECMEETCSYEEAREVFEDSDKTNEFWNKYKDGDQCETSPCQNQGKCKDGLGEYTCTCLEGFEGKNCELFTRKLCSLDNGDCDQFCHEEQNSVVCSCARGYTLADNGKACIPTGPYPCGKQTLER
Chain of Coagulation factor X (P00742 235-488 limits assumed): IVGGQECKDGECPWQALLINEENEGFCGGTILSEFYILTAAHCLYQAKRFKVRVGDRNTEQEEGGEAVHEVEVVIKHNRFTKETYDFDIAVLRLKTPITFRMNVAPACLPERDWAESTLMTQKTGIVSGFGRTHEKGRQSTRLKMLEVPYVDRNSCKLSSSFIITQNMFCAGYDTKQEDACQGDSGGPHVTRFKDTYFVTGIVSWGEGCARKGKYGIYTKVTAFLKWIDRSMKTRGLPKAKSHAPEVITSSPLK
Chain of Vitamin K-dependent protein C (P04070 43-197 limits assumed): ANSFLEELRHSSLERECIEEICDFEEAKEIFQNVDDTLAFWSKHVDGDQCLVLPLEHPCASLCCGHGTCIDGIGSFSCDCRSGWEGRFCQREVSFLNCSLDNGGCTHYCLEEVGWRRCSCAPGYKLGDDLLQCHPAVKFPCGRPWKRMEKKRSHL
Chain of Vitamin K-dependent protein C (P04070 212-461 limits assumed): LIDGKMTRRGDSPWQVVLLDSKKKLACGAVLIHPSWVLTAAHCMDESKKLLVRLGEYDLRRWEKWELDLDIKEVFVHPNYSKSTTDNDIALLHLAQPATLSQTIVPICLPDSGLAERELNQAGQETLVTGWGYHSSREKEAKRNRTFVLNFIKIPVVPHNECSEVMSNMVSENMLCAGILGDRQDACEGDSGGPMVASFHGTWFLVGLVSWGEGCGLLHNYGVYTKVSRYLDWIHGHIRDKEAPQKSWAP

Row | Ki [1] [µM] | Compound | other results
1 | 0.587 | N=C(N)NC(=O)c1nc(-c2cc3cc(F)ccc3o2)c(N)nc1N | 
2 | 1.41 | N=C(N)NC(=O)c1nc(-c2cc3ccccc3s2)c(N)nc1N | 
3 | 0.578 | N=C(N)NC(=O)c1nc(-c2cc3cc(Cl)ccc3o2)c(N)nc1N | 
4 | 2.41 | CSc1ccc(-c2nc(C(=O)NC(=N)N)c(N)nc2N)cc1 | 
5 | 0.35 | N=C(N)NC(=O)c1nc(-c2ccc3occc3c2)c(N)nc1N | 
6 |  | N=C(N)NC(=O)c1nc(-c2cc3ccccc3o2)c(N)nc1N | Activity [2]: Non-Toxic; IC50 [3]: > 50 µM; Activity [4]: Non-Toxic; Activity [5]: Non-Toxic
7 | 0.776 | N=C(N)NC(=O)c1nc(-c2ccco2)c(N)nc1N | 
8 | 0.439 | COc1ccc2cc(-c3nc(C(=O)NC(=N)N)c(N)nc3N)oc2c1 | 
9 | 0.904 | N#Cc1ccc2oc(-c3nc(C(=O)NC(=N)N)c(N)nc3N)cc2c1 | 
10 | 1.26 | N=C(N)NC(=O)c1nc(-c2cccs2)c(N)nc1N | 
11 | 2.5 | N=C(N)NC(=O)c1nc(-c2ccccc2)c(N)nc1N | 
12 | 0.204 | COc1ncc(-c2nc(C(=O)NC(=N)N)c(N)nc2N)cn1 | Activity [2]: Non-Toxic; Activity [4]: Non-Toxic
13 | 1.63 | COc1ncc(-c2nc(C(=O)NC(=N)N)c(N)nc2N)c(OC)n1 | 
14 |  | N=C(N)NC(=O)c1nc(Cl)c(N)nc1N [AMILORIDE] | inhibition [6]: inactive; IC50 [7]: > 50 µM; IC50 [8]: > 50 µM; IC50 [9]: > 20 µM; IC50 [3]: > 50 µM; IC50 [10]: > 50 µM; IC50 [11]: > 20 µM; IC50 [12]: > 50 µM; IC50 [13]: > 20 µM
15 | 3.65 | N=C(N)NC(=O)c1nc(-c2cc3cc(Br)ccc3o2)c(N)nc1N | 
16 | 0.287 | COc1ccc2oc(-c3nc(C(=O)NC(=N)N)c(N)nc3N)cc2c1 | 
17 | 0.499 | N=C(N)NC(=O)c1nc(-c2ccoc2)c(N)nc1N | 
18 | 1.21 | COc1ccc(-c2nc(C(=O)NC(=N)N)c(N)nc2N)c(OC)n1 | 
19 | 0.482 | Cn1cc(-c2nc(C(=O)NC(=N)N)c(N)nc2N)cn1 | 
20 | 0.642 | Cc1ccc2oc(-c3nc(C(=O)NC(=N)N)c(N)nc3N)cc2c1 | 
21 | 3.14 | N=C(N)NC(=O)c1nc(-c2ccc(C(F)(F)F)cc2)c(N)nc1N | 
22 | 1.48 | N=C(N)NC(=O)c1nc(-c2ccc3c(c2)CCO3)c(N)nc1N | 
